Values of other authors as cited in patent US20210220430A1, “USE OF NOD2 AGONIST FOR THE TREATMENT, PROPHYLAXIS AND/OR DELAY OF THE ONSET OF MULTIPLE SCLEROSIS AND ALZHEIMER?S DISEASE” (UNIVERSITE LAVAL, priority 2018, published 2021).

Target: NOD2 (Homo sapiens, UniProt Q9HC29)
Settings: compared with classical N-acetyl MDP

Chain of NOD2 (Q9HC29 whole entry, species assumed): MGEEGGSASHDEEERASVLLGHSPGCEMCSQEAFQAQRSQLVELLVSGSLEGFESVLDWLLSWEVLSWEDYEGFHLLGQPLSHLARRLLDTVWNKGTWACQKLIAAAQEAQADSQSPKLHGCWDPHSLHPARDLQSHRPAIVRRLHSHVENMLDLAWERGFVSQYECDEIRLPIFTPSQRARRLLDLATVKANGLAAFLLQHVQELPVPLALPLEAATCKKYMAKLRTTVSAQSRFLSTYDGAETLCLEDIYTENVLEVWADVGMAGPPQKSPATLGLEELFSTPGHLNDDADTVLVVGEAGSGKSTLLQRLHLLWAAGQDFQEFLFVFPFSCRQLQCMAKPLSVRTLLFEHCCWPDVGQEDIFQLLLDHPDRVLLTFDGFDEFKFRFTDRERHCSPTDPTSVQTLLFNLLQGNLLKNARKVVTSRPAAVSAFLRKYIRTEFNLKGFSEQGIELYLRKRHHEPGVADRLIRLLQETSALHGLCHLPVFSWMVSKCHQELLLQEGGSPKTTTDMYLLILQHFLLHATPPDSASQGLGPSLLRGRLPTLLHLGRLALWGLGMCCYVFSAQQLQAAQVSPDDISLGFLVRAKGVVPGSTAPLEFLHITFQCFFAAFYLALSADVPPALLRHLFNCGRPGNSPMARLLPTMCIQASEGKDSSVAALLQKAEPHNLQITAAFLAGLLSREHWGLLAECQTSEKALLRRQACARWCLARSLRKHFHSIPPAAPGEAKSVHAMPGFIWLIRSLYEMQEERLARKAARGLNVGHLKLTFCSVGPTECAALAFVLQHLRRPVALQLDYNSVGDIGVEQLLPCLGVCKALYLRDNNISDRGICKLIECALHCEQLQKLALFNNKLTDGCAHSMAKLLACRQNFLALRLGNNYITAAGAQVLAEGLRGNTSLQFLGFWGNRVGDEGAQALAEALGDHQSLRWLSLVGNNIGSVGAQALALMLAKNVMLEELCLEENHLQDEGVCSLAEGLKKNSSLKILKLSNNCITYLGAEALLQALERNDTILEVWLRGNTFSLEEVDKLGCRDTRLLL

- NOD2 agonist potency at stimulating inflammatory genes: more potent
SMILES: C[C@@H](NC(=O)[C@@H](C)OC1C(NC(=O)CO)[C@@H](O)OC(CO)[C@H]1O)C(=O)NC(CCC(=O)O)C(N)=O (stereo partly shown) [N-glycolyl MDP]
